Source: ChEMBL document CHEMBL1909046, “DrugMatrix in vitro pharmacology data”

Columns and labels:
[1] = DRUGMATRIX: GABAA, Flunitrazepam, Central radioligand binding (ligand: [3H] Flunitrazepam); format: cell membranes, Rattus norvegicus, Wistar, Brain, Membrane; conditions: Not Active = under 50% inhibition at 10 µM
[2] = DRUGMATRIX: Platelet-Derived Growth Factor (PDGF) radioligand binding (ligand: [125I] PDGF); format: cell-based; conditions: nih3t3; Not Active = under 50% inhibition at 10 µM
[3] = molecular target: T1, Polyunsaturated fatty acid lipoxygenase ALOX15 (Oryctolagus cuniculus, UniProt P12530); assay: biochemical; format: tissue-based, Reticulocytes; conditions: reticulocytes;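 note: inhibition of 15-lipoxygenase enzyme activity measured with linoleic acid as the substrate; in other assays of this panel Not Active means under 50% inhibition at 10 µM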
T1 sequence (P12530 whole entry): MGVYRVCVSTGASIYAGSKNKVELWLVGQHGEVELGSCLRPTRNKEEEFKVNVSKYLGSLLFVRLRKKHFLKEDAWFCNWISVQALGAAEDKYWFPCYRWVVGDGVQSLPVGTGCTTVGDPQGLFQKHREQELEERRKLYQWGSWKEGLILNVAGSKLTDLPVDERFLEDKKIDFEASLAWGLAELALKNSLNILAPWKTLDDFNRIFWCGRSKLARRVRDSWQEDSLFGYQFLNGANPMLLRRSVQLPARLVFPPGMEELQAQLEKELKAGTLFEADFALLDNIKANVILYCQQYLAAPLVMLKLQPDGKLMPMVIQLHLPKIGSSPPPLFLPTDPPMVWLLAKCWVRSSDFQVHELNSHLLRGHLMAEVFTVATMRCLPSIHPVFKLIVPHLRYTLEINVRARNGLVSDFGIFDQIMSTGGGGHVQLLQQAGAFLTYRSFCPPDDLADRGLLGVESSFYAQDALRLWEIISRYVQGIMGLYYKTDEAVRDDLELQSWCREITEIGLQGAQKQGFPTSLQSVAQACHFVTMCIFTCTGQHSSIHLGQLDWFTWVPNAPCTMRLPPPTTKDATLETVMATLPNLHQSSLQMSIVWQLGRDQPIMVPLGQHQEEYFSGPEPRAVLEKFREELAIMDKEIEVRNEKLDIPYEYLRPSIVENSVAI

[4] = DRUGMATRIX: Purinergic P2X radioligand binding (ligand: [3H] alpha, beta-Methylene-ATP); format: cell membranes, Oryctolagus cuniculus, New Zealand albino, Urinary bladder, Membrane; conditions: Not Active = under 50% inhibition at 10 µM
[5] = molecular target: Mitogen-activated protein kinase 14 (Homo sapiens, UniProt Q16539); parameters: species or system Escherichia coli;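 note: inhibition of p38alpha enzyme activity in a biochemical kinase assay, with myelin basic protein serving as substrate; in other assays of this panel Not Active means under 50% inhibition at 10 µM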
Chain of Mitogen-activated protein kinase 14 (Q16539 whole entry): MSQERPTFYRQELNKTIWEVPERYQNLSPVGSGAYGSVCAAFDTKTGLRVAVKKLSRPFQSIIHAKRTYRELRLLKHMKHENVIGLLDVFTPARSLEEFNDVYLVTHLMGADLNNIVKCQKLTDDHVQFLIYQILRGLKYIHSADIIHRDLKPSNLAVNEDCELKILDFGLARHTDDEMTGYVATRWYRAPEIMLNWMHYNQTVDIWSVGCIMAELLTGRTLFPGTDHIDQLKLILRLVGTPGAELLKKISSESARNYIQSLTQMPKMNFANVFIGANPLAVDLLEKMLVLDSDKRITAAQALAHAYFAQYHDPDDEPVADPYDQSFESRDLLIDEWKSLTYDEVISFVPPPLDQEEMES

Thromboxane-A synthase = molecular target: T2, Thromboxane-A synthase (Homo sapiens, UniProt P24557); assay: biochemical; format: tissue-based, Platelet; conditions: platelet;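 note: enzyme inhibition assay with PGH2 supplied as substrate; in other assays of this panel Not Active means under 50% inhibition at 10 µM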
T2 sequence (P24557 whole entry): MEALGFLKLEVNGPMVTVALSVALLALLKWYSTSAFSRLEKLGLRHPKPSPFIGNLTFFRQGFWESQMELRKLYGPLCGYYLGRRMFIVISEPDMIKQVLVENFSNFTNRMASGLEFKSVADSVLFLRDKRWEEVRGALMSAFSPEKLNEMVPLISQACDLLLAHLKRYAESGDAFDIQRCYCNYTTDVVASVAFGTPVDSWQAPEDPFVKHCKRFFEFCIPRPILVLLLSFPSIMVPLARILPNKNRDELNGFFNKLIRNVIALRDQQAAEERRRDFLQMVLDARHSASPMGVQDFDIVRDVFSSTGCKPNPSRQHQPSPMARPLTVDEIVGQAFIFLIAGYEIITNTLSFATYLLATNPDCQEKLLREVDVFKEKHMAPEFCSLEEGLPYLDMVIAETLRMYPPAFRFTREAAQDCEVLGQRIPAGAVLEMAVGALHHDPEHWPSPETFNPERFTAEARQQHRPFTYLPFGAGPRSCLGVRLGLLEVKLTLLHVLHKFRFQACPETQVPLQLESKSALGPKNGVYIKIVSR

[6] = molecular target: Epidermal growth factor receptor (Homo sapiens, UniProt P00533); assay: DRUGMATRIX: Protein Tyrosine Kinase, EGF Receptor enzyme inhibition (substrate: Poly(Glu:Tyr)); format: cell-based, Insect cells; conditions: insect cells; Not Active = under 50% inhibition at 10 µM

SODIUM NITROPRUSSIDE
Not Active: IC50 [1] | Ki [1] | IC50 [2] | Ki [2] | IC50 [3] | Ki [3] | IC50 [4] | Ki [4] | IC50 [5] | Ki [5] | IC50 (Thromboxane-A synthase) | Ki (Thromboxane-A synthase) | IC50 [6] | Ki [6]

Cn1ccnc1S [METHIMAZOLE]
Not Active: IC50 [1] | Ki [1] | IC50 [2] | Ki [2] | IC50 [3] | IC50 [4] | Ki [4] | IC50 [5] | IC50 (Thromboxane-A synthase) | IC50 [6]

Cc1oncc1C(=O)Nc1ccc(C(F)(F)F)cc1 [LEFLUNOMIDE]
Not Active: IC50 [1] | Ki [1] | IC50 [2] | Ki [2] | IC50 [3] | IC50 [4] | Ki [4] | IC50 [5] | IC50 (Thromboxane-A synthase) | IC50 [6]

COc1c(C)c2c(c(O)c1C/C=C(\C)CCC(=O)O)C(=O)OC2 [MYCOPHENOLIC ACID]
Not Active: IC50 [1] | Ki [1] | IC50 [2] | Ki [2] | IC50 [3] | IC50 [4] | Ki [4] | IC50 [5] | IC50 (Thromboxane-A synthase) | IC50 [6]

CCCOc1ccccc1-c1nc2nn[nH]c2c(=O)[nH]1 [ZAPRINAST]
Not Active: IC50 [1] | Ki [1] | IC50 [2] | Ki [2] | IC50 [3] | IC50 [4] | Ki [4] | IC50 [5] | IC50 (Thromboxane-A synthase) | IC50 [6]

C=CCC1(C(C)CCC)C(=O)NC(=O)NC1=O (centres undefined) [SECOBARBITAL]
Not Active: IC50 [1] | Ki [1] | IC50 [2] | Ki [2] | IC50 [3] | IC50 [4] | Ki [4] | IC50 [5] | IC50 (Thromboxane-A synthase) | IC50 [6]

CC(=O)[C@@]1(O)CC[C@H]2[C@@H]3C[C@H](C)C4=CC(=O)CC[C@]4(C)[C@H]3CC[C@@]21C
Not Active: IC50 [1] | Ki [1] | IC50 [2] | Ki [2] | IC50 [3] | IC50 [4] | Ki [4] | IC50 [5] | IC50 (Thromboxane-A synthase) | IC50 [6]
